Patent publication US20240092779A1, “USP1 INHIBITORS AND USES THEREOF” (Zentaur Therapeutics USA Inc., priority 2022, published 2024)

Key:
[1] = Liver microsomal stability (HLM); assay type: in vitro ADME; settings: human, liver microsomes, human liver microsomes 0.5 mg/mL, 1 μM compound, NADPH
Procedure: Liver Microsomal Stability
Certain Compounds of the Disclosure were assessed for ADME metabolic stability in human liver microsomes (HLM).
Samples were prepared by adding 222.5 μL of a master solution (100 mM phosphate buffer and 0.5 mg/mL liver microsomes (HLM)) and 25 μL of a 10 mM NADPH solution to incubation plates, which were then warmed for 10 min. Each compound was separately dissolved in DMSO to prepare 10 mM stock solutions, which were then diluted to 100 μM with acetonitrile. A reaction was started by adding 2.5 μL of the […] solution of each compound to separate incubation plates such that the final concentration of for each compound in each plate was 1 μM. Aliquots of 30 μL were taken from the reaction solution at 0.5, 5, 15, 30 and 60 minutes. The reaction was stopped by the addition of 5 volumes of cold acetonitrile with IS (100 nM alprazolam, 200 nM caffeine and 100 nM tolbutamide). Aliquot of 100 μL of the supernatant was diluted by 100 μL ultra-pure water, and the mixture was used for LC/MS/MS analysis. Peak areas were determined from extracted ion chromatograms. […]. The percentage of remaining parent was calculated from peak area of test compound or PC. The slope value, k, is determined by linear regression of the natural logarithm of percent parent remaining vs. incubation time curve. All calculations are carried out using Microsoft Excel.
The in vitro half-life (in vitro t1/2) is determined from the slope value:
Conversion of the in vitro t1/2 (in min) into the in vitro intrinsic clearance (in vitro CLint, (HLM Clint (μL/min/mg proteins))) is done using the following equation: […]
A: HLM Clint <10 μL/min/mg; B: 10 μL/min/mg≤HLM Clint <50 μL/min/mg; C: HLM Clint ≥50 μL/min/mg.

MDA-MB-436 cells = assay: CTG Protocol (MDA-MB-436 GI50), antiproliferative activity; assay type: cell-based, human; settings: Homo sapiens, 168 h; MDA-MB-436 cells (BRCA1 mutation), 7-day incubation, CellTiter-Glo
Procedure: CTG Protocol (MDA-MB-436 GI50)
Antiproliferative activity of USP1 inhibitors was determined using breast cancer cell line MDA-MB-436 that harbors BRCA1 mutation. MDA-MB-436 cells (ATCC, HTB-130) was seeded with a seeding density of 1000 cells per well and 95 μL DMEM medium (Gibco, 10566016) into 96-well cell plates (Corning, 3610), and incubated overnight at 37° C. and 5% CO2. Compounds were solubilized in DMSO (Solarbio, D8371) as 10 mM stock solution, and then series diluted (3 folds) with DMSO for 9-point dose-response testing. The resulted series dilutions were then jump-diluted 50-fold by cell culture medium to afford the 20×stock solutions (containing 2% DMSO). Treatment was initiated by adding 5 μL of 20×stock solution to the assay plate and incubated at 37° C. and 5% CO2. At the end of 7-day incubation, cell assay plates were removed from incubation and equilibrated to room temperature (20 min). Then 100 μL of CellTiter-Glo (Promega, G9243) reagent, prepared per manufacturer's protocol, was added to each well, and the resulted plates were centrifuged 1,000 rpm for 1 minute, incubated at room temperature in the dark for 20 minutes, sealed with Perkin Elmer sticky film, and the luminescence signal read by Envision (Perkin Elmer).
Data analysis • a) % Inhibition was calculated using following equation: […]
X: compound concentration; Y: % Inhibition
(§1) Certain compounds were tested in the assays.

HCC1806 Ub-PCNA (USP1) = assay: USP1 Western Blot Protocol (HCC1806 Ub-PCNA); assay type: cell-based; settings: Homo sapiens, HCC1806 cells, 4 hours
Description: USP1 Western Blot Protocol (HCC1806 Ub-PCNA)
USP1 is a deubiquitinase that catalyze the hydrolysis of iso-peptide bond between ubiquitin and the substrate proteins. Inhibition of USP1 activity results in accumulation of mono-ubiquitinated substrate such as Ub-PCNA. A cell assay was set up to determine the cellular potency of USP1 compounds by monitoring the accumulation of Ub-PCNA. The signal intensity was detected by a specific Ub-PCNA antibody through Western-blot analysis.
The assay was initiated by seeding HCC1806 cells (ATCC, CRL-2335) into 6-well plates (Corning, 3516), with a seeding density of 3×10^5 cells per well and 2 mL RPMI 1640 culture medium (Gibco, 11875119). The plates were incubated overnight at 37° C. and 5% CO2. Compounds, solubilized in DMSO (Solarbio, D8371) as 1 mM stock solution, were diluted in 4-fold steps for 5-cencentration point dose response plus a no-compound DMSO control. Diluted compounds (2 μL) were transferred into assay wells (with a final DMSO concentration of −0.1%) and the resulted assay plates incubated at 37° C. and 5% CO2 for 4 hours. After aspiration of culture medium, 100 μL of 4° C. RIPA lysis buffer (Boston BioProducts, BP-115D) supplemented with vendor recommended concentrations of protease (Roche, 4693116001) and phosphatase (Roche, 4906837001) inhibitor, was added to each well and incubated for 10 minutes on the ice. Cells were scrapped loose from the bottom of well with a scraper (Corning, 3008), transferred into a 600 μL EP tube, sonicated using Ultrasound (Qsonica, Q800R3, with 30% energy, 5-second pulse on/off cycles at 4° C., for total 2 minutes), centrifuged 13,000 rpm for 15 minutes at 4° C., and then the supernatant transferred to a new 600 μL EP tube. The total protein concentration was determined using BCA kit following vendor recommended protocol (Solarbio, PC0020-500). Loading samples were prepared by diluting the total protein concentration to 1.5 μg/μL with 5 X NuPAGE SDS loading buffer (Beyotime, P0015L) and RIPA lysis buffer, and boiling at 100° C. for 5 minutes.
15 μg protein from each sample was loaded onto NuPAGE® Novex 4-12% Bis-Tris Midi Gel, 26 W (Invitrogen, WG1403BOX) and electrophoresis was run at 80 V for 30 minutes and 120 V till the end using 1x NuPAGE® MOPS SDS Running Buffer (Novex, NP0001). The gel was then transferred to nitrocellulose membrane using the dry transfer system (iBlot 2 Transfer Stacks, nitrocellulose, D323001) with a program consisting of 20 V for 1 minute, 23 V for 4 minutes and 25 V for 2 minutes. After the membrane was blocked with 5% BSA (Solarbio, A8020) in 1X TBST (CST, 9997S) for 1 hour at room temperature, specific antibodies (Ubiquityl-PCNA antibody (CST, 13439) at 1:500 dilution, PCNA antibody (Santa Cruz, sc-56) at 1:1000 dilution, and GAPDH (CST, 5174) at 1:2000 dilution in 1 X TBST containing 1% BSA) were added and incubated at room temperature for 1.5 hours. After washing the Nitrocellulose membranes with 1 X TBST for 3 times, 10 minutes each time at room temperature, fluorescently labeled secondary antibodies (anti-rabbit IgG, Licor, 926-32211; anti-mouse IgG, LI-COR, 926-68070) at 1:5000 dilution in 1 X TBST containing 1% BSA were added and incubated for 1 hour at room temperature in the dark. The membranes were then rinsed with 1 X TBST and immersed in the RO water. Imaging of band intensity was acquired with Li—COR imaging system (Li—COR, Odyssey clx ES).
Percentage of USP1 inhibition (% Vehicle) was calculated by using following equation examining Ub-PCNA upregulation:
And IC50 was calculated using four-parameter logistic fitting program • Y=Bottom+(Top-Bottom)/(1+10 {circumflex over (()}(LogIC50−X)*Hill Slope)) • X=Log of dose or concentration
as §1

microsomal CLint at 1 μM [1] [µL/min/mg] | GI50 (MDA-MB-436 cells) [nM] | IC50 (HCC1806 Ub-PCNA (USP1)) [nM] | SMILES
10 to 50 | – | – | [2H]C([2H])([2H])Oc1ncnc(C2CC2)c1-c1ncc2ccc(=O)n(C([2H])([2H])c3ccc(-c4nc(C(F)(F)F)cn4C([2H])([2H])[2H])cc3)c2n1 [Compound I-57]
10 to 50 | < 10 | 10 to 100 | [2H]C([2H])([2H])n1cc(C(F)(F)F)nc1-c1ccc(Cn2c(=O)ccc3cnc(-c4c(OC)ncnc4C4CC4)nc32)cc1 [Compound I-31, 2-(4-Cyclopropyl-6-Methoxypyrimidin-5-Yl)-8-({4-[1-(2H3)Methyl-4-(Trifluoromethyl)Imidazol-2-Yl]Phenyl}Methyl)Pyrido[2,3-d]Pyrimidin-7-One]
10 to 50 | – | – | COc1ncnc(C2CC2)c1-c1cc2c(ccc(=O)n2Cc2ccc(-c3nc(C(F)(F)F)cn3C)cc2)cn1 [Compound I-11, 7-(4-Cyclopropyl-6-Methoxypyrimidin-5-Yl)-1-({4-[1-Methyl-4-(Trifluoromethyl)Imidazol-2-Yl]Phenyl}Methyl)-1,6-Naphthyridin-2-One]
10 to 50 | – | – | COc1ncnc(C2CC2)c1-c1ncc2ccc(=O)n(Cc3ccc(-c4nc(C(F)(F)F)cn4C4COC4)cc3)c2n1 [Compound I-59]
– | 10 to 100 | 10 to 100 | COc1ncnc(C2CC2)c1-c1ncc2ccc(=O)n(Cc3ccc(-c4nc(C(F)(F)F)ccc4OC(C)C)cc3)c2n1 [Compound 75, 2-(4-Cyclopropyl-6-Methoxypyrimidin-5-Yl)-8-({4-[3-Isopropoxy-6-(Trifluoromethyl)Pyridin-2-Yl]Phenyl}Methyl)Pyrido[2,3-d]Pyrimidin-7-One]
– | 10 to 100 | < 10 | COc1ncnc(C2CC2)c1-c1ncc2cc(-c3cnnn3C)c(=O)n(Cc3ccc(-c4nc(C(F)(F)F)cn4C4CC4)cc3)c2n1 [Compound I-159, 8-({4-[1-cyclopropyl-4-(trifluoromethyl)imidazol-2-yl]phenyl}methyl)-2-(4-cyclopropyl-6-methoxypyrimidin-5-yl)-6-(3-methyl-1,2,3-triazol-4-yl)pyrido[2,3-d]pyrimidin-7-one]
– | > 1000 | 10 to 100 | COc1ncnc(C2CC2)c1-c1ncc2ccc(=O)n(Cc3ccc(-c4nc(C(F)(F)F)cn4C)cn3)c2n1 [Compound 88, 2-(4-Cyclopropyl-6-Methoxypyrimidin-5-Yl)-8-({5-[1-Methyl-4-(Trifluoromethyl)Imidazol-2-Yl]Pyridin-2-Yl}Methyl)Pyrido[2,3-d]Pyrimidin-7-One]
10 to 50 | 10 to 100 | 10 to 100 | [2H]C([2H])([2H])n1cc(C(F)(F)F)nc1-c1ccc(C([2H])([2H])n2c(=O)ccc3cnc(-c4c(OC)ncnc4C4CC4)nc32)cc1 [Compound I-37, 2-(4-Cyclopropyl-6-Methoxypyrimidin-5-Yl)-8-({4-[1-(2H3)Methyl-4-(Trifluoromethyl)Imidazol-2-Yl]Phenyl}(2H2)Methyl)Pyrido[2,3-d]Pyrimidin-7-One]
10 to 50 | – | – | COc1ncnc(C2CC2)c1-c1ncc2ccc(=O)n(Cc3ccc(-c4nc(C(F)(F)F)cn4C)cc3)c2n1 [Compound I-1, 2-(4-Cyclopropyl-6-Methoxypyrimidin-5-Yl)-8-({4-[1-Methyl-4-(Trifluoromethyl)Imidazol-2-Yl]Phenyl}Methyl)Pyrido[2,3-d]Pyrimidin-7-One]
– | 10 to 100 | 10 to 100 | COc1ncnc(C2CC2)c1-c1ncc2cc(-c3nnc(C)n3C)c(=O)n(Cc3ccc(-c4nc(C(F)(F)F)cn4C4CC4)cc3)c2n1 [Compound I-149, 8-({4-[1-Cyclopropyl-4-(Trifluoromethyl)Imidazol-2-Yl]Phenyl}Methyl)-2-(4-Cyclopropyl-6-Methoxypyrimidin-5-Yl)-6-(4,5-Dimethyl-1,2,4-Triazol-3-Yl)Pyrido[2,3-d]Pyrimidin-7-One]
10 to 50 | – | – | COc1ncnc(C2CC2)c1-c1ncc2ncc(=O)n(Cc3ccc(-c4nc(C(F)(F)F)cn4C)cc3)c2n1 [Compound I-17, 2-(4-cyclopropyl-6-methoxypyrimidin-5-yl)-8-({4-[1-methyl-4-(trifluoromethyl)imidazol-2-yl]phenyl}methyl) pteridin-7-one]
– | 10 to 100 | 10 to 100 | COc1ncnc(C2CC2)c1-c1ncc2cc(Cl)c(=O)n(Cc3ccc(-c4nc(C(F)(F)F)cn4C)cc3)c2n1 [Compound 79, 6-Chloro-2-(4-Cyclopropyl-6-Methoxypyrimidin-5-Yl)-8-({4-[1-Methyl-4-(Trifluoromethyl)Imidazol-2-Yl]Phenyl}Methyl)Pyrido[2,3-d]Pyrimidin-7-One]
– | < 10 | < 10 | COc1ncnc(C2CC2)c1-c1ncc2ncc(=O)n(Cc3ccc(-c4nc(C(F)(F)F)cn4C(C)C)cc3)c2n1 [Compound I-29]
